ChEMBL document CHEMBL1151469, “Cytotoxic activity of N-chlorotaurine on Acanthamoeba spp” (Antimicrob Agents Chemother, 2008)
pEC50: −log10 of the molar value. Active and inactive are the calls of the source. The calls are words filed in the database; no cut-off is given here.

Columns and labels:
Acanthamoeba polyphaga [1] = test: Amoebicidal activity against Trophozoites of Acanthamoeba polyphaga 5SU assessed as reduction killing time at 55 mM in phosphate buffered saline at pH 7 by hemocytometer using trypan blue stain in presence of 190 mM ammonium chloride; format: functional, organism-based
Acanthamoeba hatchetti [2] = test: Amoebicidal activity against Trophozoites of Acanthamoeba hatchetti 11DS assessed as reduction in cell count at 10 mM in phosphate buffered saline at pH 7 within 1 hr by hemocytometer using trypan blue stain in presence of 290 mM ammonium chloride; format: functional, organism-based
Acanthamoeba polyphaga [3] = test: Amoebicidal activity against Trophozoites of Acanthamoeba polyphaga 5SU assessed as log reduction in cell count at 10 mM in phosphate buffered saline at pH 7 after 6 hrs by hemocytometer using trypan blue stain; format: functional
Acanthamoeba hatchetti [4] = test: Amoebicidal activity against Trophozoites of Acanthamoeba hatchetti 11DS assessed as reduction of killing time at 10 mM in phosphate buffered saline at pH 5 by hemocytometer using trypan blue stain in presence of 34 mM ammonium chloride; format: functional, organism-based
Acanthamoeba hatchetti [5] = test: Amoebicidal activity against Trophozoites of Acanthamoeba hatchetti 11DS in phosphate buffered saline at pH 7 after 1 hr by hemocytometer using trypan blue stain; format: functional, organism-based
Acanthamoeba polyphaga [6] = test: Amoebicidal activity against Trophozoites of Acanthamoeba polyphaga 5SU assessed as complete killing time at 55 mM in phosphate buffered saline at pH 7 after 6 hrs by hemocytometer using trypan blue stain in presence of 190 mM ammonium chloride; format: functional, organism-based
Acanthamoeba polyphaga [7] = test: Amoebicidal activity against Trophozoites of Acanthamoeba polyphaga 5SU assessed as complete loss of viability at 55 mM in phosphate buffered saline after 24 hrs by hemocytometer using trypan blue stain in presence of 190 mM ammonium chloride; format: functional, organism-based
Acanthamoeba castellanii [8] = test: Amoebicidal activity against Trophozoites of Acanthamoeba castellanii 40AB assessed as log reduction in cell count at 20 mM in peptone yeast extract glucose medium at pH 7 after 24 hrs by hemocytometer using trypan blue stain; format: functional
Acanthamoeba polyphaga [9] = test: Amoebicidal activity against Trophozoites of Acanthamoeba polyphaga 5SU assessed as log reduction in cell count at 10 mM in phosphate buffered saline at pH 5 after 6 hrs by hemocytometer using trypan blue stain; format: functional, organism-based
Acanthamoeba polyphaga [10] = test: Amoebicidal activity against Trophozoites of Acanthamoeba polyphaga 5SU assessed as killing time at 0.16 M in peptone yeast extract glucose medium at pH 7 by hemocytometer using trypan blue stain; format: functional
Acanthamoeba polyphaga [11] = test: Amoebicidal activity against Trophozoites of Acanthamoeba polyphaga 5SU assessed as log reduction in cell count at 20 mM in peptone yeast extract glucose medium at pH 7 after 24 hrs by hemocytometer using trypan blue stain; format: functional
Acanthamoeba hatchetti [12] = test: Amoebicidal activity against Trophozoites of Acanthamoeba hatchetti 11DS in phosphate buffered saline at pH 7 after 24 hrs by hemocytometer using trypan blue stain; format: functional, organism-based
Acanthamoeba hatchetti [13] = test: Amoebicidal activity against Trophozoites of Acanthamoeba hatchetti 11DS assessed as killing time at 10 mM in phosphate buffered saline at pH 5 by hemocytometer using trypan blue stain in presence of 290 mM ammonium chloride; format: functional
Acanthamoeba polyphaga [14] = test: Amoebicidal activity against Trophozoites of Acanthamoeba polyphaga 5SU assessed as prevention of sporadic cysts formation at 55 mM in phosphate buffered saline at pH 7 by hemocytometer using trypan blue stain; format: functional, organism-based
Acanthamoeba polyphaga [15] = test: Amoebicidal activity against Trophozoites of Acanthamoeba polyphaga 5SU assessed as reduction in cell count at 20 mM in peptone yeast extract glucose medium at pH 7 after 6 hrs by hemocytometer using trypan blue stain in presence of 580 mM ammonium chloride; format: functional, organism-based
Acanthamoeba hatchetti [16] = test: Amoebicidal activity against Trophozoites of Acanthamoeba hatchetti 11DS assessed as log reduction in cell count at 20 mM in peptone yeast extract glucose medium at pH 7 after 24 hrs by hemocytometer using trypan blue stain; format: functional
Acanthamoeba polyphaga [17] = test: Amoebicidal activity against excysted trophozoites of Acanthamoeba polyphaga 5SU at 55 mM in peptone yeast extract glucose medium after 4 days by hemocytometer using trypan blue stain; format: functional
Acanthamoeba polyphaga [18] = test: Amoebicidal activity against Trophozoites of Acanthamoeba polyphaga 5SU at 55 mM in phosphate buffered saline at pH 7 after 1 hr by hemocytometer using trypan blue stain in presence of 190 mM ammonium chloride; format: functional, organism-based
Acanthamoeba hatchetti [19] = test: Amoebicidal activity against Trophozoites of Acanthamoeba hatchetti 11DS assessed as log reduction in cell count at 10 mM in phosphate buffered saline at pH 5 after 24 hrs by hemocytometer using trypan blue stain; format: functional, organism-based
Acanthamoeba hatchetti [20] = test: Amoebicidal activity against Trophozoites of Acanthamoeba hatchetti 11DS assessed as rounding of the cells at 55 mM in phosphate buffered saline at pH 7 after 15 mins by hemocytometer using trypan blue stain; format: functional, organism-based
Acanthamoeba hatchetti [21] = test: Amoebicidal activity against Trophozoites of Acanthamoeba hatchetti 11DS in phosphate buffered saline at pH 7 after 6 hrs by hemocytometer using trypan blue stain; format: functional, organism-based
Acanthamoeba hatchetti [22] = test: Amoebicidal activity against Trophozoites of Acanthamoeba hatchetti 11DS assessed as log reduction in cell count at 10 mM in phosphate buffered saline at pH 7 after 6 hrs by hemocytometer using trypan blue stain; format: functional
Acanthamoeba castellanii [23] = test: Amoebicidal activity against Trophozoites of Acanthamoeba castellanii 4CL assessed as log reduction in cell count at 20 mM in peptone yeast extract glucose medium at pH 7 after 24 hrs by hemocytometer using trypan blue stain; format: functional
Acanthamoeba hatchetti [24] = test: Amoebicidal activity against Trophozoites of Acanthamoeba hatchetti 11DS assessed as log reduction in cell count at 20 mM in peptone yeast extract glucose medium at pH 7 after 6 hrs by hemocytometer using trypan blue stain; format: functional, organism-based
Acanthamoeba polyphaga [25] = test: Amoebicidal activity against Trophozoites of Acanthamoeba polyphaga 5SU assessed as log reduction in cell count at 10 mM in phosphate buffered saline at pH 5 after 1 hr by hemocytometer using trypan blue stain in presence of 160 mM beta-alanine; format: functional, organism-based
Acanthamoeba polyphaga [26] = test: Amoebicidal activity against Trophozoites of Acanthamoeba polyphaga 5SU in phosphate buffered saline at pH 7 after 24 hrs by hemocytometer using trypan blue stain; format: functional, organism-based
Acanthamoeba polyphaga [27] = test: Amoebicidal activity against Trophozoites of Acanthamoeba polyphaga 5SU assessed as log reduction in cell count at 10 mM in phosphate buffered saline at pH 7 after 6 hrs by hemocytometer using trypan blue staining; format: functional, organism-based
Acanthamoeba polyphaga [28] = test: Amoebicidal activity against Trophozoites of Acanthamoeba polyphaga 5SU in peptone yeast extract glucose medium at pH 7 after 1 hr by hemocytometer using trypan blue stain; format: functional, organism-based
Acanthamoeba polyphaga [29] = test: Amoebicidal activity against Trophozoites of Acanthamoeba polyphaga 5SU in phosphate buffered saline at pH 7 after 24 hrs by hemocytometer using trypan blue stain in presence of 34 mM ammonium chloride; format: functional, organism-based
Acanthamoeba polyphaga [30] = test: Amoebicidal activity against Trophozoites of Acanthamoeba polyphaga 5SU assessed as increase in cell killing at 10 mM in phosphate buffered saline at pH 7 within 3 hrs by hemocytometer using trypan blue stain in presence of 34 mM ammonium chloride; format: functional, organism-based
Acanthamoeba hatchetti [31] = test: Amoebicidal activity against Trophozoites of Acanthamoeba hatchetti 11DS assessed as log reduction in cell count at 10 mM in phosphate buffered saline at pH 5 after 24 hrs by hemocytometer using trypan blue stain in presence of 34 mM ammonium chloride; format: functional, organism-based
Acanthamoeba castellanii [32] = test: Amoebicidal activity against excysted trophozoites of Acanthamoeba castellanii 40AB at 55 mM in peptone yeast extract glucose medium after 4 days by hemocytometer using trypan blue stain; format: functional

In the case of `O=S(=O)(O)CCNCl`, the Activity (Acanthamoeba polyphaga [1]) was “inactive”, the Activity (Acanthamoeba hatchetti [2]) was “Active” and the Activity (Acanthamoeba polyphaga [3]) was 2. For the same compound, the Activity (Acanthamoeba hatchetti [4]) was “inactive”, the pEC50 (Acanthamoeba hatchetti [5]) was 1.81 and the Activity (Acanthamoeba polyphaga [6]) was “Active”. The Activity (Acanthamoeba polyphaga [7]) was “Active”, the Activity (Acanthamoeba castellanii [8]) was 2 and the Activity (Acanthamoeba polyphaga [9]) was “Active”. It also gave an Activity (Acanthamoeba polyphaga [10]) of 30 min, an Activity (Acanthamoeba polyphaga [11]) of 2 and a pEC50 (Acanthamoeba hatchetti [12]) of 2.44. For the same compound, the EC90 (Acanthamoeba hatchetti [12]) was 7.56 mM, the Activity (Acanthamoeba hatchetti [13]) was 24 h and the Activity (Acanthamoeba polyphaga [14]) was “inactive”. The Activity (Acanthamoeba polyphaga [15]) was “Active”, the Activity (Acanthamoeba hatchetti [16]) was 2 and the Activity (Acanthamoeba polyphaga [17]) was 8000. For the same compound, the Activity (Acanthamoeba polyphaga [18]) was “Active”, the Activity (Acanthamoeba hatchetti [19]) was “Active” and the Activity (Acanthamoeba hatchetti [20]) was “Active”. It also gave a pEC50 (Acanthamoeba hatchetti [21]) of 2.41, an EC90 (Acanthamoeba hatchetti [21]) of 7.71 mM and an Activity (Acanthamoeba hatchetti [22]) of 2. For the same compound, the Activity (Acanthamoeba castellanii [23]) was 2, the Activity (Acanthamoeba hatchetti [24]) was “Active” and the Activity (Acanthamoeba polyphaga [25]) was “Active”. For the same compound, the pEC50 (Acanthamoeba polyphaga [26]) was 2.46, the EC90 (Acanthamoeba polyphaga [26]) was 7.38 mM and the Activity (Acanthamoeba polyphaga [27]) was “Active”. The pEC50 (Acanthamoeba polyphaga [28]) was 1.64, the pEC50 (Acanthamoeba polyphaga [29]) was 2.30 and the EC90 (Acanthamoeba polyphaga [29]) was 9.03 mM. The Activity (Acanthamoeba polyphaga [30]) was “Active”, the Activity (Acanthamoeba hatchetti [31]) was “inactive” and the Activity (Acanthamoeba castellanii [32]) was 13000.
